Assay results: ChEMBL document CHEMBL1201861, “Genomics of Drug Sensitity in Cancer screening data, Wellcome Trust Sanger Institute”

Columns and labels:
Test in all cases: cells
CP66-MEL = format: functional, cell-based, Homo sapiens; settings: Homo sapiens, CP66-MEL;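 also: growth inhibition of CP66-MEL cells determined in a cell viability assay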
Description: SANGER: Inhibition of human CP66-MEL cell growth in a cell viability assay.

D-502MG = format: functional, cell-based, Homo sapiens; settings: Homo sapiens, D-502MG
Description: SANGER: Inhibition of human D-502MG cell growth in a cell viability assay.

DB = format: functional, cell-based; settings: Homo sapiens
Description: SANGER: Inhibition of human DB cell growth in a cell viability assay.

ES6 = format: functional, cell-based, Homo sapiens; settings: Homo sapiens, ES6;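 also: growth inhibition of human ES6 cells, read out with a cell viability assay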
Description: SANGER: Inhibition of human ES6 cell growth in a cell viability assay.

IST-MES1 = format: functional, cell-based, Homo sapiens; settings: Homo sapiens, IST-MES1;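 also: growth inhibition of IST-MES1 cells, measured with a cell viability assay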
Description: SANGER: Inhibition of human IST-MES1 cell growth in a cell viability assay.

KNS-81-FD = format: functional, cell-based, Homo sapiens; settings: Homo sapiens, KNS-81-FD;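 also: growth inhibition of KNS-81-FD cells, read out with a cell viability assay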
Description: SANGER: Inhibition of human KNS-81-FD cell growth in a cell viability assay.

LB1047-RCC = format: functional, cell-based, Homo sapiens; settings: Homo sapiens, LB1047-RCC;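 also: inhibition of cell growth, determined with a cell viability assay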
Description: SANGER: Inhibition of human LB1047-RCC cell growth in a cell viability assay.

LB771-HNC = format: functional, cell-based, Homo sapiens; settings: Homo sapiens, LB771-HNC;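 also: growth inhibition of LB771-HNC human cells, read out with a cell viability assay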
MHH-NB-11 = format: functional, cell-based, Homo sapiens; settings: Homo sapiens, MHH-NB-11;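 also: growth inhibition of human MHH-NB-11 cells, read out by a cell viability assay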
Description: SANGER: Inhibition of human MHH-NB-11 cell growth in a cell viability assay.

MN-60 = format: functional, cell-based; settings: Homo sapiens;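 also: growth inhibition of the MN-60 cell line, determined with a cell viability assay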
Description: SANGER: Inhibition of human MN-60 cell growth in a cell viability assay.

MOLT-16 = format: functional, cell-based; settings: Homo sapiens;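 also: growth inhibition of human MOLT-16 cells, read out with a cell viability assay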
Description: SANGER: Inhibition of human MOLT-16 cell growth in a cell viability assay.

MPP-89 = format: functional, cell-based, Homo sapiens; settings: Homo sapiens, MPP-89;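 also: growth inhibition of human MPP-89 cells, read out with a cell viability assay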
Description: SANGER: Inhibition of human MPP-89 cell growth in a cell viability assay.

MZ2-MEL = format: functional, cell-based, Homo sapiens; settings: Homo sapiens, MZ2-MEL;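 also: growth inhibition of MZ2-MEL cells read out with a cell viability assay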
Description: SANGER: Inhibition of human MZ2-MEL cell growth in a cell viability assay.

NB6 = format: functional, cell-based, Homo sapiens; settings: Homo sapiens, NB6;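 also: growth inhibition of NB6 cells, read out by a cell viability assay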
Description: SANGER: Inhibition of human NB6 cell growth in a cell viability assay.

NCI-H1581 = format: functional, cell-based, Homo sapiens; settings: Homo sapiens, NCI-H1581;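 also: cell growth inhibition read out by a viability assay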
Description: SANGER: Inhibition of human NCI-H1581 cell growth in a cell viability assay.

NCI-H23 = format: functional, cell-based, Homo sapiens; settings: Homo sapiens, NCI-H23;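 also: cell viability assay measuring growth inhibition of NCI-H23 cells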
NCI-H69 = format: functional, cell-based; settings: Homo sapiens;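 also: growth inhibition of the cell line, read out with a cell viability assay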
Description: SANGER: Inhibition of human NCI-H69 cell growth in a cell viability assay.

NOMO-1 = format: functional, cell-based; settings: Homo sapiens;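 also: growth inhibition of human NOMO-1 cells measured by a cell viability assay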
Description: SANGER: Inhibition of human NOMO-1 cell growth in a cell viability assay.

OCUB-M = format: functional, cell-based, Homo sapiens; settings: Homo sapiens, OCUB-M;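 also: growth inhibition of the cancer cell line, read out through a cell viability assay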
Description: SANGER: Inhibition of human OCUB-M cell growth in a cell viability assay.

OVCAR-4 = format: functional, cell-based, Homo sapiens; settings: Homo sapiens, OVCAR-4;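 also: growth inhibition of human OVCAR-4 cells, measured with a cell viability assay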
Description: SANGER: Inhibition of human OVCAR-4 cell growth in a cell viability assay.

SF-539 = format: functional, cell-based, Homo sapiens; settings: Homo sapiens, SF-539;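 also: Read-out is a cell viability assay, with IC50 reflecting inhibition of cell growth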
Description: SANGER: Inhibition of human SF539 cell growth in a cell viability assay.

SK-MEL-2 = format: functional, cell-based, Homo sapiens; settings: Homo sapiens, SK-MEL-2;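 also: growth inhibition of human SK-MEL-2 cells measured with a cell viability assay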
Description: SANGER: Inhibition of human SK-MEL-2 cell growth in a cell viability assay.

SW872 = format: functional, cell-based, Homo sapiens; settings: Homo sapiens, SW872;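 also: growth inhibition of SW872 cells, read out by a viability assay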
Description: SANGER: Inhibition of human SW872 cell growth in a cell viability assay.

TE-1 = format: functional, cell-based, Homo sapiens; settings: Homo sapiens, TE-1;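 also: growth inhibition of the human TE-1 cell line, read out with a cell viability assay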
Description: SANGER: Inhibition of human TE-1 cell growth in a cell viability assay.

A253 cell line = format: functional, cell-based, Homo sapiens; settings: Homo sapiens, A253;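 also: growth inhibition of A253 cells, read out with a cell viability assay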
Description: SANGER: Inhibition of human A253 cell growth in a cell viability assay.

A3-KAW = format: functional, cell-based; settings: Homo sapiens;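 also: growth inhibition of human A3-KAW cells, read out with a cell viability assay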
Description: SANGER: Inhibition of human A3-KAW cell growth in a cell viability assay.

BT-474 = format: functional, cell-based, Homo sapiens; settings: Homo sapiens, BT-474
Description: SANGER: Inhibition of human BT-474 cell growth in a cell viability assay.

TGW = format: functional, cell-based; settings: Homo sapiens;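 also: growth inhibition of human TGW cells, read out with a cell viability assay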
Description: SANGER: Inhibition of human TGW cell growth in a cell viability assay.

| SMILES | IC50 (CP66-MEL) | IC50 (D-502MG) | IC50 (DB) | IC50 (ES6) | IC50 (IST-MES1) | IC50 (KNS-81-FD) | IC50 (LB1047-RCC) | IC50 (LB771-HNC) | IC50 (MHH-NB-11) | IC50 (MN-60) | IC50 (MOLT-16) | IC50 (MPP-89) | IC50 (MZ2-MEL) | IC50 (NB6) | IC50 (NCI-H1581) | IC50 (NCI-H23) | IC50 (NCI-H69) | IC50 (NOMO-1) | IC50 (OCUB-M) | IC50 (OVCAR-4) | other results |
| --- | --- | --- | --- | --- | --- | --- | --- | --- | --- | --- | --- | --- | --- | --- | --- | --- | --- | --- | --- | --- | --- |
| CC1=C2C[C@H]3[C@@H](CC=C4C[C@@H](O)CC[C@@]43C)[C@@H]2CC[C@]12O[C@@H]1C[C@H](C)CN[C@H]1[C@H]2C [CYCLOPAMINE] | > 16 µM | > 16 µM | > 16 µM | > 16 µM | > 16 µM | > 16 µM | > 16 µM | > 16 µM | > 16 µM | > 16 µM | > 16 µM | > 16 µM | > 16 µM | > 16 µM | > 16 µM | > 16 µM | > 16 µM | > 16 µM | > 16 µM | > 16 µM | IC50 (SF-539): > 16 µM; IC50 (SK-MEL-2): > 16 µM; IC50 (SW872): > 16 µM; IC50 (TE-1): > 16 µM; IC50 (A253 cell line): > 16 µM; IC50 (A3-KAW): > 16 µM; IC50 (BT-474): > 16 µM; IC50 (TGW): > 16 µM |
| CN1CCN(CCOc2cc(OC3CCOCC3)c3c(Nc4c(Cl)ccc5c4OCO5)ncnc3c2)CC1 [SARACATINIB] | > 2 µM | > 2 µM | > 2 µM | > 2 µM | > 2 µM | > 2 µM | 1.55 µM | > 2 µM | > 2 µM | > 2 µM | > 2 µM | > 2 µM | > 2 µM | > 2 µM | > 2 µM | > 2 µM | > 2 µM | > 2 µM | > 2 µM | > 2 µM | IC50 (SF-539): > 2 µM; IC50 (SK-MEL-2): > 2 µM; IC50 (SW872): > 2 µM; IC50 (TE-1): 1.44 µM; IC50 (A253 cell line): > 2 µM; IC50 (A3-KAW): > 2 µM; IC50 (BT-474): > 2 µM; IC50 (TGW): > 2 µM |
| CS(=O)(=O)CCNCc1ccc(-c2ccc3ncnc(Nc4ccc(OCc5cccc(F)c5)c(Cl)c4)c3c2)o1 [LAPATINIB] | > 2 µM | > 2 µM | > 2 µM | > 2 µM | > 2 µM | > 2 µM | > 2 µM | > 2 µM | > 2 µM | > 2 µM | > 2 µM | > 2 µM | > 2 µM | > 2 µM | > 2 µM | > 2 µM | > 2 µM | > 2 µM | 0.0574 µM | > 2 µM | IC50 (SF-539): > 2 µM; IC50 (SK-MEL-2): > 2 µM; IC50 (SW872): > 2 µM; IC50 (TE-1): > 2 µM; IC50 (A253 cell line): 1.97 µM; IC50 (A3-KAW): > 2 µM; IC50 (BT-474): 0.213 µM; IC50 (TGW): > 2 µM |
| CCc1nc(N)nc(N)c1-c1ccc(Cl)cc1 [PYRIMETHAMINE] | > 20 µM | > 20 µM | > 20 µM | 17.2 µM | > 20 µM | > 20 µM | > 20 µM | > 20 µM | 13.7 µM | > 20 µM | 15.1 µM | > 20 µM | > 20 µM | > 20 µM | > 20 µM | 6.54 µM | > 20 µM | > 20 µM | > 20 µM | 4.15 µM | IC50 (SF-539): 2.55 µM; IC50 (SK-MEL-2): > 20 µM; IC50 (SW872): > 20 µM; IC50 (TE-1): 9.92 µM; IC50 (A253 cell line): > 20 µM; IC50 (A3-KAW): 9.44 µM; IC50 (BT-474): > 20 µM; IC50 (TGW): > 20 µM |
| CNC(=O)c1cc(Oc2ccc(NC(=O)Nc3ccc(Cl)c(C(F)(F)F)c3)cc2)ccn1 [SORAFENIB] | > 4 µM | > 4 µM | > 4 µM | > 4 µM | > 4 µM | > 4 µM | > 4 µM | > 4 µM | > 4 µM | > 4 µM | > 4 µM | > 4 µM | > 4 µM | > 4 µM | > 4 µM | > 4 µM | > 4 µM | > 4 µM | > 4 µM | 2.21 µM | IC50 (SF-539): > 4 µM; IC50 (SK-MEL-2): > 4 µM; IC50 (SW872): > 4 µM; IC50 (TE-1): > 4 µM; IC50 (A253 cell line): > 4 µM; IC50 (A3-KAW): 1.88 µM; IC50 (BT-474): > 4 µM; IC50 (TGW): > 4 µM |
| O=C(/C=C/c1ccccc1)NC(NC(=S)Nc1cccc2cccnc12)C(Cl)(Cl)Cl (stereo unspecified) [SALUBRINAL] | > 16 µM | > 16 µM | > 16 µM | > 16 µM | > 16 µM | > 16 µM | > 16 µM | > 16 µM | > 16 µM | > 16 µM | 14 µM | > 16 µM | > 16 µM | > 16 µM | > 16 µM | > 16 µM | > 16 µM | > 16 µM | > 16 µM | 14.8 µM | IC50 (SF-539): > 16 µM; IC50 (SK-MEL-2): > 16 µM; IC50 (SW872): > 16 µM; IC50 (TE-1): > 16 µM; IC50 (A253 cell line): > 16 µM; IC50 (A3-KAW): 8.43 µM; IC50 (BT-474): > 16 µM; IC50 (TGW): > 16 µM |
| C=C1C(=O)O[C@@H]2C3O[C@]3(C)CC/C=C(\C)CC[C@@H]12 (stereo partly specified) | > 5 µM | > 5 µM | > 5 µM | > 5 µM | > 5 µM | > 5 µM | > 5 µM | > 5 µM | > 5 µM | > 5 µM | > 5 µM | > 5 µM | > 5 µM | > 5 µM | > 5 µM | > 5 µM | > 5 µM | > 5 µM | > 5 µM | > 5 µM | IC50 (SF-539): 2.47 µM; IC50 (SK-MEL-2): > 5 µM; IC50 (SW872): > 5 µM; IC50 (TE-1): > 5 µM; IC50 (A253 cell line): > 5 µM; IC50 (A3-KAW): 2.29 µM; IC50 (BT-474): > 5 µM; IC50 (TGW): > 5 µM |
